Consider 1 compound from US20070003987A1, “Screening method for substance binding to merozoite surface protein-1/42” (priority 2003, published 2007).

Experiment [1] concerns the target T1, MSP142 (Plasmodium falciparum, UniProt Q8I0U8). As to the kind of experiment: inhibition of suramin binding (fluorescence, 384-well plate). Conditions: λex 320 nm/λem 405 nm. As to the method: MSP142 (0.1 mg/ml), 10 μM suramin analogue and 2 μM suramin were combined in a 384-well black polypropylene low binding plate (total reaction volume 100 μL). Fluorescence was read at λex 320 nm/λem 405 nm on a BMG Polarstar fluorimeter. Readings were taken before, and 1 hour after, addition of suramin.

The target of experiment [2] is T2, MSP119 from P. falciparum (Plasmodium falciparum, UniProt P04933, S1528A).
T2 construct: contained the 96 amino acid MSP119 fragment, preceded by a single His residue; N-terminal leader […]; (His6 + Factor Xa site); made in house; host or cells: Pichia pastoris (vector pPIC9K)
As to the kind of experiment: binding of suramin by fluorimetry. From the text: (§1) Plasmodium falciparum MSP119 (Swiss-Prot 04933) was expressed from a synthetic gene optimised for Pichia pastoris expression (European Patent No. EP1180120). This construct, inserted at the SnaBI site of vector pPIC9K (Invitrogen), contained the N-terminal leader sequence YHHHHHHIEGRH preceding the MSP119 sequence. A point mutation (Ser3 to Ala) was also introduced to eliminate N-glycosylation at Asn1. Following purification of MSP119 as described previously (Morgan et al, 1999 J. Mol. Biol. 289, 113-122), the N-terminal tag was cleaved with Factor Xa (New England Biolabs) and MSP119 was purified by gel filtration (Superdex 200). The fmal product contained the 96 amino acid MSP119 fragment, preceded by a single His residue.
The intrinsic fluorescence of suramin was used to determine its capacity to bind to the various MSP1-derived proteins. The fluorescence was measured using a Perkin Elmer LS-3B or a Spex Fluoro Max 2 fluorimeter. Suramin was excited at a wavelength of 315 or 330 nm with 2.5 nm resolution, the emission spectra were measured at wavelengths ranging from 350-450 nm. Suramin and the MSP1 proteins were diluted in 20 mM NaH2PO4, 150 mM NaCl at pH 7.2 and analysed at 10 or 20° C. Titrations were performed by adding aliquots of the suramin solution to the MSP1 solution. […] The Kd for the suramin-MSP1 binding was determined from three independent experiments.

In the next experiment the test system is P. vivax MSP142. As to the kind of experiment: binding of suramin by fluorimetry. The source says:
The MSP142 protein from P. vivax was cloned into plasmid jmp28, a modified pET-28 vector that encodes an N-terminal peptide MHHHHHHIEGRWIL immediately upstream of the inserted sequence. P. vivax (Belem strain) DNA was used as a template for PCR based cloning. The sequence of the expressed protein (following the vector encoded N-terminal peptide) corresponded to residues Asp 1325 to Ser 1704, Accession number A39401.
The protein was expressed in BL21(DE3)pLysS cells by induction of a culture at an OD600 of 0.6-0.8 with IPTG at a final concentration of 1 mM. The cells were induced for 3 h at 37° C. and then harvested by centrifugation. […]
The intrinsic fluorescence of suramin was used to determine its capacity to bind to the various MSP1-derived proteins. The fluorescence was measured using a Perkin Elmer LS-3B or a Spex Fluoro Max 2 fluorimeter. Suramin was excited at a wavelength of 315 or 330 nm with 2.5 nm resolution, the emission spectra were measured at wavelengths ranging from 350-450 nm. Suramin and the MSP1 proteins were diluted in 20 mM NaH2PO4, 150 mM NaCl at pH 7.2 and analysed at 10 or 20° C. […] The Kd for the suramin-MSP1 binding was determined from three independent experiments.

Experiment [3] deals with T2, MSP119 from P. falciparum. As to the kind of experiment: NMR titration of 15N labelled MSP119 with suramin. The experiment is classed as binding.
Description: as §1
NMR experiments were carried out on Varian spectrometers operating at proton frequencies of 500, 600 and 800 MHz. Suramin (0.03-16.0 mM) ^1H spectra were recorded at 5 to 35° C. […] MSP119/suramin samples were examined with either unlablled or ^15N labelled MSP119 in 50 mM sodium phosphate and 100 mM NaCl in 90% H2O/10% D2O at pH 6.5 (pH values are pH meter readings uncorrected for deuterium isotope effects). […] 1D ^1H and 2D ^1H-^15N HSQC NMR spectra were recorded for each concentration of suramin. […]

Experiment [4] concerns the target T1, MSP142. As to the kind of experiment: competition binding of analogues 258 and 264 against suramin. Conditions: MSP142 0.1 mg/ml, 1 hour. As to the method:
MSP142 (0.1 mg/ml) and fixed concentrations of analogue 258 (5 μM) or 264 (10 μM) were premixed and 90 μL added to a 384-well black polypropylene plate. Suramin was added to give a final concentration in the range 0.01 to 200 μM in a total reaction volume of 100 μL. The plates were incubated at room temperature protected from light for 1 hour, and then read as before. Results are shown in FIG. 10, which is a graph of fluorescence (arbitary units) against concentration of suramin competitor for analogue 258 (white squares) and 264 (black circles).

By Kd is commonly meant the constant that tells how readily two partners part at equilibrium. Higher therefore signals a looser complex. By IC50 is commonly meant the point on the concentration scale where inhibition reaches its midpoint.

T1 sequence (Q8I0U8 1327-1699): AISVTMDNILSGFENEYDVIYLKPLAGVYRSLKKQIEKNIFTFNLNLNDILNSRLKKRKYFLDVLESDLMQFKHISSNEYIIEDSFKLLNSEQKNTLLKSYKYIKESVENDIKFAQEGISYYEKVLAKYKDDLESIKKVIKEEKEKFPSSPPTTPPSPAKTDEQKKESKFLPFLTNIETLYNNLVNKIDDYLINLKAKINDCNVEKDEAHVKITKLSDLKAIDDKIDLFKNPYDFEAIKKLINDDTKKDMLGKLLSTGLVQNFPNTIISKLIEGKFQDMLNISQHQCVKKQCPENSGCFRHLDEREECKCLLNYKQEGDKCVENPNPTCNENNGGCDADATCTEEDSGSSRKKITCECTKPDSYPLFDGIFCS
T2 sequence (P04933 1526-1618 S1528A): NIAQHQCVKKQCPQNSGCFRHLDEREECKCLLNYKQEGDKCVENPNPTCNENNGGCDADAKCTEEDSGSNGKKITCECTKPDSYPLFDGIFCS

Take `Cc1ccc(C(=O)Nc2ccc(S(=O)(=O)O)c3cc(S(=O)(=O)O)cc(S(=O)(=O)O)c23)cc1NC(=O)c1cccc(NC(=O)Nc2cccc(C(=O)Nc3cc(C(=O)Nc4ccc(S(=O)(=O)O)c5cc(S(=O)(=O)O)cc(S(=O)(=O)O)c45)ccc3C)c2)c1` [suramin]: the “signal to noise ratio of fluorescence signal” value on MSP142 [1] is on record as 1.8. Moreover, in experiment [2], the “enhancement of suramin fluorescence on addition to MSP119” value is given as “No fluorescence enhancement”. For the same compound, the “enhancement of intrinsic suramin fluorescence on binding” value in the experiment on P. vivax MSP142 was “large binding-induced enhancements”. Besides, in experiment [3], the Kd was approximately 15000 µM. Moreover, the IC50 on MSP142 [4] (IC50, displacement of analogue 258 from MSP1 by suramin, analogue 258 at 5 μM) worked out at 8 µM; on MSP142 [4] (IC50, displacement of analogue 264 from MSP1 by suramin, analogue 264 at 10 μM), 3 µM.
